Results taken from patent US11203591B2, “Substituted 6-azabenzimidazole compounds” (Gilead Sciences, Inc., priority 2018, dated 2021).

These compounds were tested against human HPK1 (MAP4K1) (Homo sapiens (Human), UniProt Q92918) (assay: HPK1 IC50 Assay (TR-FRET peptide phosphorylation)). Conditions: recombinant HPK1 kinase domain 0.15 nM, 10 μM ATP, 1 μM STK S1 peptide; geometric mean of multiple experiments.
Assay type: biochemical
Method: The enzymatic activity of human HPK1 (MAP4K1) was monitored in a biochemical assay in the presence or absence of compounds and using a synthetic peptide substrate. An increase in phosphorylation of the peptide by HPK1 was indicative of its kinase activity.
Recombinant HPK1 kinase domain produced via baculovirus infection of insect cells was obtained from Proteros (Proteros Biostructures #PR-0322) and was pre-activated in the presence of 2 mM ATP (Sigma-Aldrich, cat #GE27-2056-01) and 2 mM magnesium chloride for 16 hours at 4° C. The protein reaction mixture was then loaded to a desalting column (Thermo Fisher Scientific, Cat #89889) to remove excess ATP. HPK1 was eluted with buffer containing 20 mM Tris (2-Amino-2-(hydroxymethyl)propane-1,3-diol) pH 8.0, 150 mM NaCl, 2 mM dithiothreitol and 5% glycerol, and was frozen at −80° C. for later use. HPK1 dual phosphorylation was confirmed by mass spectrometry.
Ten nanoliters of test compounds dissolved in DMSO at various concentrations were dispensed into a 384-well ProxiPlate (PerkinElmer #6008289). Five microliters of a solution of recombinant HPK1 diluted in HPK1 kinase assay buffer (50 mM BES [N,N-Bis(2-hydroxyethyl)-2-aminoethanesulfonic acid], pH 7.0; 10 mM magnesium chloride; 0.01% Triton X-100; 1 mM dithiothreitol; 0.01% bovine serum albumin; 0.1 mM sodium orthovanadate) was added to the compound-containing plate and was incubated for 15 minutes at 25° C. Five microliters of a mixture of ATP (Sigma-Aldrich #A6559) and peptide substrate STK S1 (Cisbio #61ST1BLC) diluted in HPK1 kinase assay buffer was then added to start the reaction. Final concentrations were 0.15 nM for HPK1, 10 μM for ATP, and 1 μM for the STK S1 peptide substrate. The reaction mixture was incubated at 25° C. for 3 hours and was stopped with the addition of 10 μl of an EDTA (Ethylenediaminetetraacetic acid)-containing detection buffer (Cisbio #62SDBRDF) supplemented with Europium cryptate-labeled anti-phospho-serine/threonine antibodies (Cisbio #62ST1PEJ) and XL665-labeled streptavidin (Cisbio #610SAXLG). The mixture was incubated for 16 hours at room temperature and peptide phosphorylation was measured by time-resolved fluorescence energy transfer (665 nm/620 nm) on an Envision plate reader (PerkinElmer).
Data in Table 1 were normalized based on positive (staurosporine) and negative (DMSO) controls. Least squares curve fittings were performed using a four-parameter variable slope nonlinear regression model. IC50 is defined as the concentration of compound required to inhibit 50% of maximum phosphorylation. IC50 values from multiple experiments were averaged by geometric mean and the standard deviation was calculated.

Chain of human HPK1 (MAP4K1) (Q92918 17-274): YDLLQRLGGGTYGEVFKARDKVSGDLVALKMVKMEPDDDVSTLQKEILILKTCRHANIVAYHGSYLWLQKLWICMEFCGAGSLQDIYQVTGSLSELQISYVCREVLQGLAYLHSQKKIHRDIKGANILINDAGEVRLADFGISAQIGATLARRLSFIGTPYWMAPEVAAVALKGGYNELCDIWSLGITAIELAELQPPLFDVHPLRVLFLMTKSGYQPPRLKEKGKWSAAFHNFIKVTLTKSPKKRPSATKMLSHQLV

Structure (SMILES) | IC50
CNC(=O)c1cc(Nc2nc(-c3ccc4c(c3)N([C@H]3C[C@@H](N5CC[C@H](F)C5)C3)C(=O)C4(C)C)cc3ncn(C(C)C)c23)ccc1C [Example 5] | 0.2 nM
CNC(=O)c1cc(Nc2nc(-c3ccc4c(c3)N([C@H]3C[C@@H](N5C6COCC5C6)C3)C(=O)C4(C)C)cc3ncn(C(C)C)c23)ccc1C [Example 6] | 0.1 nM
CNC(=O)c1cc(Nc2nc(-c3ccc4c(c3)N([C@H]3C[C@@H](N5CC6C(C5)C6(F)F)C3)C(=O)C4(C)C)cc3ncn(C(C)C)c23)ccc1C (some centres unmarked) [Example 7] | 0.4 nM
CNC(=O)c1cc(Nc2nc(-c3ccc4c(c3)N([C@H]3C[C@@H](N5C6CCC5COC6)C3)C(=O)C4(C)C)cc3ncn(C(C)C)c23)c(F)cc1C [Example 8] | 0.08 nM
CNC(=O)c1cc(Nc2nc(-c3ccc4c(c3)N([C@H]3C[C@@H](N5C6COCC5C6)C3)C(=O)C4(C)C)cc3ncn(C(C)C)c23)c(F)cc1C [Example 9] | 0.1 nM
CNC(=O)c1cc(Nc2nc(-c3ccc4c(c3)N([C@H]3C[C@@H](NC(C)C)C3)C(=O)C4(C)C)cc3ncn(C(C)C)c23)ccc1C [Example 11] | 0.1 nM
CNC(=O)c1cc(Nc2nc(-c3ccc4c(c3)N([C@H]3C[C@@H](N[C@@H]5CCOC[C@H]5C)C3)C(=O)C4(C)C)cc3ncn(C(C)C)c23)ccc1C [Example 13] | 0.1 nM
CNC(=O)c1cc(Nc2nc(-c3ccc4c(c3)N([C@H]3C[C@@H](NC(C)C)C3)C(=O)C4(C)C)cc3ncn(C(C)C)c23)c(F)cc1C [Example 14] | 0.3 nM
CNC(=O)c1cc(Nc2nc(-c3ccc4c(c3)N([C@H]3C[C@@H](NCC(C)(C)O)C3)C(=O)C4(C)C)cc3ncn(C(C)C)c23)c(F)cc1C [Example 15] | 0.1 nM
Cc1ccc(Nc2nc(-c3ccc4c(c3)N([C@H]3C[C@@H](N5CCOC(C)(C)C5)C3)C(=O)C4(C)C)cc3ncn(C4CC4)c23)cc1C(N)=O [Example 16] | 0.1 nM
CNC(=O)c1cc(Nc2nc(-c3cnc4c(c3)N([C@H]3C[C@@H](N5CCCCC5)C3)C(=O)C4(C)C)cc3ncn(C(C)C)c23)ccc1C [Example 18] | 0.4 nM
Cc1ccc(Nc2nc(-c3cnc4c(c3)N([C@H]3C[C@@H](N5CCCCC5)C3)C(=O)C4(C)C)cc3ncn(C(C)C)c23)cc1C(=O)NC1(C(F)F)CC1 [Example 19] | 0.3 nM
Cc1ccc(Nc2nc(-c3ccc4c(c3)N([C@H]3C[C@@H](N5CCCCC5)C3)C(=O)C43CCOCC3)cc3ncn(C(C)C)c23)cc1C(=O)NC1CCC1 [Example 23] | 0.2 nM
Cc1ccc(Nc2nc(-c3ccc4c(c3)N([C@H]3C[C@@H](N5CCCCC5)C3)C(=O)C4(C)C)cc3ncn(C(C)C)c23)cc1C(=O)NC1CC1 [Example 26] | 0.1 nM

More lines, in order of falling IC50, values ahead:

IC50 | Structure (SMILES)
0.1 nM | CC(C)n1cnc2cc(-c3cnc4c(c3)N([C@H]3C[C@@](C)(N5CCC6CC6C5)C3)C(=O)C4(C)C)nc(Nc3cc(C(=O)NC4(CF)CC4)c(Cl)c(F)c3F)c21 (mixture of isomers) [Example 257, 5-((6-(1-((1s,3s)-3-(3-azabicyclo[4.1.0]heptan-3-yl)-3-methylcyclobutyl)-3,3-dimethyl-2-oxo-2,3-dihydro-1H-pyrrolo[3,2-b]pyridin-6-yl)-3-isopropyl-3H-imidazo[4,5-c]pyridin-4-yl)amino)-2-chloro-3,4-difluoro-N-(1-(fluoromethyl)cyclopropyl)benzamide]
0.1 nM | Cc1ccc(Nc2nc(-c3ccc4c(c3)N([C@H]3C[C@@H](N5CCCCC5)C3)C(=O)C4(C)C)cc3ncn(C(C)C)c23)cc1C(=O)NC1CCC1 [Example 2]
0.1 nM | CNC(=O)c1cc(Nc2nc(-c3ccc4c(c3)N([C@H]3C[C@@H](N5CCC(C)(C)C5)C3)C(=O)C4(C)C)cc3ncn(C(C)C)c23)ccc1C [Example 3]
0.1 nM | CNC(=O)c1cc(Nc2nc(-c3ccc4c(c3)N([C@H]3C[C@@H](N5CC[C@@H](F)C5)C3)C(=O)C4(C)C)cc3ncn(C(C)C)c23)ccc1C [Example 4]
0.1 nM | CNC(=O)c1cc(Nc2nc(-c3ccc4c(c3)N([C@H]3C[C@@H](N5CC6CCC(C5)O6)C3)C(=O)C4(C)C)cc3ncn(C(C)C)c23)c(F)cc1C [Example 10]
0.09 nM | CNC(=O)c1cc(Nc2nc(-c3ccc4c(c3)N([C@H]3C[C@@H](N[C@@H]5CCOC[C@@H]5C)C3)C(=O)C4(C)C)cc3ncn(C(C)C)c23)ccc1C [Example 12]
0.08 nM | CC(C)n1cnc2cc(-c3cnc4c(c3)N([C@H]3C[C@@](C)(N5CCC6CC6C5)C3)C(=O)C4(C)C)nc(Nc3cc(C(=O)NC4(C(F)F)CC4)c(Cl)c(F)c3F)c21 (mixture of isomers) [Example 260, 5-((6-(1-((1s,3s)-3-(3-azabicyclo[4.1.0]heptan-3-yl)-3-methylcyclobutyl)-3,3-dimethyl-2-oxo-2,3-dihydro-1H-pyrrolo[3,2-b]pyridin-6-yl)-3-isopropyl-3H-imidazo[4,5-c]pyridin-4-yl)amino)-2-chloro-N-(1-(difluoromethyl)cyclopropyl)-3,4-difluorobenzamide]
0.08 nM | CNC(=O)c1cc(Nc2nc(-c3ccc4c(c3)N([C@H]3C[C@@H](N5CCCCC5)C3)C(=O)C4(C)C)cc3ncn(C(C)C)c23)ccc1C [Example 1, 5-((6-(3,3-dimethyl-2-oxo-1-((1s,3s)-3-(piperidin-1-yl)cyclobutyl)indolin-6-yl)-3-isopropyl-3H-imidazo[4,5-c]pyridin-4-yl)amino)-N,2-dimethylbenzamide]
0.08 nM | CCCNC(=O)c1cc(Nc2nc(-c3ccc4c(c3)N([C@H]3C[C@@H](N5CCCCC5)C3)C(=O)C4(C)C)cc3ncn(C(C)C)c23)ccc1C [Example 24]
0.07 nM | Cc1c(C(=O)NC2(C(F)F)CC2)cc(Nc2nc(-c3cnc4c(c3)N([C@H]3C[C@@](C)(N5CCC6CC5CO6)C3)C(=O)C4(C)C)cc3ncn(C(C)C)c23)c(F)c1F (mixture of isomers) [Example 190, 5-((6-(1-((1s,3s)-3-(6-Oxa-2-azabicyclo[3.2.1]octan-2-yl)-3-methylcyclobutyl)-3,3-dimethyl-2-oxo-2,3-dihydro-1H-pyrrolo[3,2-b]pyridin-6-yl)-3-isopropyl-3H-imidazo[4,5-c]pyridin-4-yl)amino)-N-(1-(difluoromethyl)cyclopropyl)-3,4-difluoro-2-methylbenzamide]
0.07 nM | Cc1ccc(Nc2nc(-c3ccc4c(c3)N([C@H]3C[C@@H](N5CCCCC5)C3)C(=O)C4(C)C)cc3ncn(C(C)C)c23)cc1C(=O)N[C@@H](C)C(F)F [Example 21A, N-(1,1-difluoropropan-2-yl)-5-((6-(3,3-dimethyl-2-oxo-1-((1s,3s)-3-(piperidin-1-yl)cyclobutyl)indolin-6-yl)-3-isopropyl-3H-imidazo[4,5-c]pyridin-4-yl)amino)-2-methylbenzamide]
0.07 nM | Cc1ccc(Nc2nc(-c3ccc4c(c3)N([C@H]3C[C@@H](N5CCCCC5)C3)C(=O)C4(C)C)cc3ncn(C(C)C)c23)cc1C(=O)N[C@H](C)C(F)F [Example 21B, N-(1,1-difluoropropan-2-yl)-5-((6-(3,3-dimethyl-2-oxo-1-((1s,3s)-3-(piperidin-1-yl)cyclobutyl)indolin-6-yl)-3-isopropyl-3H-imidazo[4,5-c]pyridin-4-yl)amino)-2-methylbenzamide]
0.07 nM | CCNC(=O)c1cc(Nc2nc(-c3ccc4c(c3)N([C@H]3C[C@@H](N5CCCCC5)C3)C(=O)C43CCOCC3)cc3ncn(C(C)C)c23)ccc1C [Example 22]
0.07 nM | Cc1ccc(Nc2nc(-c3ccc4c(c3)N([C@H]3C[C@@H](N5CCCCC5)C3)C(=O)C4(C)C)cc3ncn(C(C)C)c23)cc1C(=O)NCCC(F)F [Example 25]
0.07 nM | Cc1ccc(Nc2nc(-c3ccc4c(c3)N([C@H]3C[C@@H](N5CCCCC5)C3)C(=O)C4(C)C)cc3ncn(C(C)C)c23)cc1C(=O)NC1(C(F)F)CC1 [Example 27]
0.05 nM | Cc1ccc(Nc2nc(-c3ccc4c(c3)N([C@H]3C[C@@H](N5CCCCC5)C3)C(=O)C4(C)C)cc3ncn(C(C)C)c23)cc1C(=O)NCC(F)F [Example 20]
0.05 nM | Cc1ccc(Nc2nc(-c3ccc4c(c3)N([C@H]3C[C@@H](N5CCCCC5)C3)C(=O)C4(C)C)cc3ncn(C(C)C)c23)cc1C(=O)NC(C)C(F)F (some centres unmarked) [Example 21, N-(1,1-difluoropropan-2-yl)-5-((6-(3,3-dimethyl-2-oxo-1-((1s,3s)-3-(piperidin-1-yl)cyclobutyl)indolin-6-yl)-3-isopropyl-3H-imidazo[4,5-c]pyridin-4-yl)amino)-2-methylbenzamide]
0.04 nM | Cc1ccc(Nc2nc(-c3ccc4c(c3)N([C@H]3C[C@@H](N5CCC[C@@H](F)C5)C3)C(=O)C4(C)C)cc3ncn(C4CC4)c23)cc1C(N)=O [Example 17]
